Assay results taken from ChEMBL document CHEMBL1141710 (Bioorg Med Chem Lett, 2008).

Experiments:
Acetylcholinesterase = Acetylcholinesterase (Homo sapiens, UniProt P22303)
Description: Inhibition of human recombinant AChE

Cholinesterase = Cholinesterase (Homo sapiens, UniProt P06276)
Description: Inhibition of human recombinant BChE

[1] = molecular target: Cholinesterases; ACHE & BCHE (Homo sapiens) (UniProt P06276+P22303); experiment: Selectivity ratio of Ki for human recombinant AChE to Ki for human recombinant BChE
Cholinesterases; ACHE & BCHE (Homo sapiens), sequence (P06276 whole entry, looked up): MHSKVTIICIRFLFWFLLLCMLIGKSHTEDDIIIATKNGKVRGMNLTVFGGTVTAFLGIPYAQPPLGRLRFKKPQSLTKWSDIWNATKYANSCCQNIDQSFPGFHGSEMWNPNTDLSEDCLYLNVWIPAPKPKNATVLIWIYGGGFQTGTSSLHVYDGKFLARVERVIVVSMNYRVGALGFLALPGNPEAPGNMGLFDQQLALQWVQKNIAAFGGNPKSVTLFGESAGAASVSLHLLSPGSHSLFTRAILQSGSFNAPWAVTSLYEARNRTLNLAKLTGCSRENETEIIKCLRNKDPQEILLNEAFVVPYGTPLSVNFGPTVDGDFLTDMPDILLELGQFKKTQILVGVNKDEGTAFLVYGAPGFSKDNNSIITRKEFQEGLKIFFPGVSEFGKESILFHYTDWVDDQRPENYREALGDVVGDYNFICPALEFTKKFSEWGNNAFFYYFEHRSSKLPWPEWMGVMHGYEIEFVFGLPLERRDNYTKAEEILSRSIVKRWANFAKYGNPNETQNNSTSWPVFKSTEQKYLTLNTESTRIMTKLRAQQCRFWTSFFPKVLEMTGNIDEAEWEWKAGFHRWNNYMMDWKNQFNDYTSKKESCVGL
Cholinesterases; ACHE & BCHE (Homo sapiens), sequence (P22303 whole entry, looked up): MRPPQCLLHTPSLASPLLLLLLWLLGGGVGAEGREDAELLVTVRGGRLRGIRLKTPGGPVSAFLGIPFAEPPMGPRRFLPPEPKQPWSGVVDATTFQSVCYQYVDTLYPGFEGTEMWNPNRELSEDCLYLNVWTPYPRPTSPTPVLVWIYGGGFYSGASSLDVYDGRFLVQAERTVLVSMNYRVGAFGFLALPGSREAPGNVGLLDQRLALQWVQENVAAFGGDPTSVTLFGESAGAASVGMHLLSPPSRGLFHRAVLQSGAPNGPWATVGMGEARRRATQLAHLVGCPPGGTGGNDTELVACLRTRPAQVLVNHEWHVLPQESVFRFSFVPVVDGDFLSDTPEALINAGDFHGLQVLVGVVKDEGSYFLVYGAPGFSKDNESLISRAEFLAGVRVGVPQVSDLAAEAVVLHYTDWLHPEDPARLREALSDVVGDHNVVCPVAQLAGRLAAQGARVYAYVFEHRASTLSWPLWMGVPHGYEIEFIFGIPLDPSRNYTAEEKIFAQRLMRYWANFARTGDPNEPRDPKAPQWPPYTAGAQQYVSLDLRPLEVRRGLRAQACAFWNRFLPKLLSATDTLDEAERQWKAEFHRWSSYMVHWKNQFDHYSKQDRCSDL

Acetylcholinesterase, sequence (P22303 whole entry): as the sequence (P22303 whole entry, looked up) above
Cholinesterase, sequence (P06276 whole entry): as the sequence (P06276 whole entry, looked up) above

For `CN[C@@H](Cc1c[nH]c2ccccc12)C(=O)NCC(=O)Nc1c2c(nc3ccccc13)CCCC2`, the Ki (Acetylcholinesterase) was 3.33 µM and the Ki (Cholinesterase) was 1.76 µM.
`CC(C)(C)OC(=O)N[C@@H](CCC(=O)NCCNc1c2c(nc3ccccc13)CCCC2)C(=O)NCCNc1c2c(nc3ccccc13)CCCC2` showed a Ki (Acetylcholinesterase) of 0.0154 µM and a Ki (Cholinesterase) of 0.0126 µM.
In the case of `N[C@@H](Cc1c[nH]c2ccccc12)C(=O)NCCNc1c2c(nc3ccccc13)CCCC2`, the Ki (Acetylcholinesterase) is reported as 0.28 µM, the Ratio Ki [1] is reported as 210 and the Ki (Cholinesterase) is reported as 0.00133 µM.
For `CC(C)(C)OC(=O)N[C@@H](Cc1c[nH]c2ccccc12)C(=O)NCCNc1c2c(nc3ccccc13)CCCC2`, the Ki (Acetylcholinesterase) was 0.13 µM and the Ki (Cholinesterase) was 0.00187 µM.
For `N[C@@H](Cc1c[nH]c2ccccc12)C(=O)NCCC(=O)Nc1c2c(nc3ccccc13)CCCC2`, the Ki (Acetylcholinesterase) was 34 µM, the Ratio Ki [1] was 197 and the Ki (Cholinesterase) was 0.173 µM.
Work on `CN[C@@H](Cc1ccccc1)C(=O)NCC(=O)Nc1c2c(nc3ccccc13)CCCC2` yielded a Ki (Acetylcholinesterase) of 6.32 µM and a Ki (Cholinesterase) of 1.2 µM.
Work on `N[C@@H](Cc1ccccc1)C(=O)NCC(=O)Nc1c2c(nc3ccccc13)CCCC2` yielded a Ki (Acetylcholinesterase) of 1.91 µM and a Ki (Cholinesterase) of 0.708 µM.
In the case of `N[C@@H](CCC(=O)NCCNc1c2c(nc3ccccc13)CCCC2)C(=O)NCCNc1c2c(nc3ccccc13)CCCC2`, the Ki (Acetylcholinesterase) is reported as 0.00621 µM and the Ki (Cholinesterase) is reported as 0.0251 µM.
With `N[C@@H](Cc1ccc2ccccc2c1)C(=O)NCC(=O)Nc1c2c(nc3ccccc13)CCCC2` the Ki (Acetylcholinesterase) was 11.2 µM and the Ki (Cholinesterase) was 0.252 µM.
`O=C(CNC(=O)[C@@H]1Cc2ccccc2CN1)Nc1c2c(nc3ccccc13)CCCC2` gave a Ki (Acetylcholinesterase) of 4.13 µM and a Ki (Cholinesterase) of 0.58 µM.
With `O=C(NCCCCCNc1c2c(nc3ccccc13)CCCC2)[C@@H]1CCCN1CCNc1c2c(nc3ccccc13)CCCC2` the Ki (Acetylcholinesterase) was 0.00675 µM and the Ki (Cholinesterase) was 0.00177 µM.
With `N[C@@H](Cc1c[nH]c2ccccc12)C(=O)NCC(=O)Nc1c2c(nc3ccccc13)CCCC2` the Ki (Acetylcholinesterase) was 2.21 µM and the Ki (Cholinesterase) was 0.251 µM.
With `CC(C)(C)OC(=O)N[C@@H](Cc1c[nH]c2ccccc12)C(=O)NCCC(=O)Nc1c2c(nc3ccccc13)CCCC2` the Ki (Acetylcholinesterase) was 7.97 µM and the Ki (Cholinesterase) was 0.443 µM.
